Values after ≈ are worked out from the molar mass of the structure shown. Active and inactive are the calls of the source. No cut-off for these calls is given here.
Tests used:
Macrophage [1] = assay: Inhibition of SP-A degradation in rabbit alveolar macrophages; type: functional, cell-based; conditions: Oryctolagus cuniculus
physchem [2] = conditions: phosphate buffer, pH 7.4
Description: Solubility in phosphate buffer at pH 7.4

physchem [3] = conditions: phosphate buffer, pH 5
Description: Solubility in phosphate buffer at pH 5.0

[4] = artificial membrane
Description: Affinity to immobilized artificial membrane by reversed phase HPLC

physchem [5] = conditions: phosphate buffer, pH 7.5
Description: Lipophilicity in phosphate buffer at pH 7.5

Macrophage [6] = assay: Effect on rabbit alveolar macrophages assessed as reduction in viability at 50 uM by trypan blue exclusion; type: functional, cell-based; conditions: Oryctolagus cuniculus

SMILES	Activity (Macrophage [1])	solubility (physchem [2])	solubility (physchem [3])	logD IAM [4]	logD (physchem [5])	Activity (Macrophage [6])
CCCCc1oc2ccccc2c1C(=O)c1cc(I)c(OCCN2CCCCC2)c(I)c1	Active	23 µM (≈ 15.1 µg/mL)	2220 µM (≈ 1460 µg/mL)	4.28	8.04	–
CCCCc1oc2ccccc2c1C(=O)c1cc(I)c(OCCN2CCCC2)c(I)c1	Active	49 µM (≈ 31.5 µg/mL)	1860 µM (≈ 1200 µg/mL)	4.23	7.82	Active
CCCCc1oc2ccccc2c1C(=O)c1cc(I)c(OCCCN(C)C)c(I)c1	Active	212 µM (≈ 134 µg/mL)	1040 µM (≈ 657 µg/mL)	3.56	7.98	Active
CCCCc1oc2ccccc2c1C(=O)c1cc(I)c(OCCN2CCOCC2)c(I)c1	–	15 µM (≈ 9.89 µg/mL)	170 µM (≈ 112 µg/mL)	3.36	6.15	–
CCCCc1oc2ccccc2c1C(=O)c1cc(I)c(OCCN(C(C)C)C(C)C)c(I)c1	–	14 µM (≈ 9.43 µg/mL)	230 µM (≈ 155 µg/mL)	4.58	8.74	–
CCCCc1oc2ccccc2c1C(=O)c1cc(I)c(OCCN(C)C)c(I)c1	–	51 µM (≈ 31.5 µg/mL)	2210 µM (≈ 1360 µg/mL)	3.64	7.15	–

Source: ChEMBL document CHEMBL1147205 (Eur J Med Chem, 2007)
